Key:
canines having OA = test: Double-blind randomized trial in OA canines: daily activity by pedometer; assay type: in vivo, canine; conditions: 36 mg/kg/day oral
Protocol: The double-blind study was performed on a total of 30 adult canines of various breeds in five different private practice clinics. Owner consent was obtained prior to participation in the study. Each clinic was responsible for enrolling 6 canines into the study. Inclusion criteria for the study consisted of clinical assessment and radiograph confirmation of OA in at least one joint and a score of 22 or greater on the Helsinki chronic pain index (“HCPI”). Use of NSAIDs or other dietary supplements for OA were allowed, provided the current treatment regimens had not been altered for a period of at least three months. […] Canines participating in the study were also fitted with pedometers (Draco Tech International, Taiwan) to quantitatively track changes in daily activity during the course of the study. […] The pedometers were fitted onto the collars at the clinic, and owners were instructed on care and maintenance of the pedometers and provided a log book to record the daily pedometer readings. Pedometer readings were recorded on a daily basis starting one week prior to the study and continuing throughout the two-week trial period. The daily pedometer readings recorded throughout an entire week (7-day period) were used to determine the average daily activity during the baseline period (one week prior to the start of the study) and the first and second weeks of the trial. […]

[1] = tested on: cultured canine chondrocytes; test: PGE2 release in cultured canine chondrocytes challenged with IL1b; assay type: cell-based; conditions: 100 μM, IL1b challenge, FIG. 3
Protocol: The study involved the use of cultured canine chondrocytes (i.e., cells within the joint that are activated during OA). The canine chondrocytes were subjected to an inflammatory challenge in the form of cytokine Interleukin 1 beta (“IL1b”). The canine chondrocytes were then treated with various anti-inflammatory compounds including Alpha-GEE; glucosamine; a TNFα receptor antagonist; and a NSAID (Rimadyl). Alpha-GEE was administered in concentrations ranging from 10 μM to 1000 μM. The resulting effects of the various treatments on both PGE2 release and TNFα release were examined.
Alpha-GEE, glucosamine, and Rimadyl were used in a concentration of 100 μM, while the TNFα inhibitor was used in a concentration of 1 μM. Based on all of the treatments examined (i.e., Alpha-GEE; glucosamine; NSAID (Rimadyl); and TNFα receptor antagonist), Alpha-GEE produced the most dramatic decrease in PGE2 at the early 4-hour time point. […] The reduction in PGE2 release at the early 4 hour time point was greater than that observed with the NSAID, Rimadyl, glucosamine, or TNFα receptor blocker. The maximal effect of Alpha-GEE on PGE2 release from chondrocytes was observed within 8 hours, where a 75% reduction in PGE2 release was observed.

TLR-3 = test: TLR expression in exposed cells (real time PCR or immunofluorescent staining); assay type: cell-based
Excerpt: (§1) In one embodiment, the anti-inflammatory agent may include ethyl (α-guanido-methyl) ethanoate (“Alpha-GEE”). […] Toll receptors act as a key part of our body's recognition mechanism and appear to be a major factor in the onset and/or progression of various medical indications including those that involve inflammation and pain. In particular, real time PCR or immunofluorescent staining of exposed cells was used to assess expression of toll-like receptor-2 (TLR-2), TLR-3, TLR-4, and TLR-7. […] Without being bound by any particular theory, the mechanism by which TLR expression seems to be altered involves decreased pro-inflammatory mediator production in the wake of exposure to Alpha-GEE.

TLR-4 = test: as above; assay type: cell-based
Excerpt: as §1

TLR-7 = test: as above; assay type: cell-based
Excerpt: as §1

[2] = tested on: toll-like receptor-2 (TLR-2); test: as above; assay type: cell-based
Excerpt: as §1

Substance: ethyl (α-guanido-methyl) ethanoate [Alpha-GEE]
- increase in daily pedometer readings (mobility) (canines having OA; first week versus baseline week, p<0.05 vs placebo): approximately 20%
- increase in daily pedometer readings (mobility, physical activity) (canines having OA; second week versus baseline week, p<0.01 vs placebo): approximately 30%
- reduction in PGE2 release from canine chondrocytes ([1]; 4 hours): approximately 60%
- reduction in PGE2 release from canine chondrocytes (maximal effect) ([1]; within 8 hours): 75%
- expression of TLR-3 in cells (TLR-3): increases expression
- expression of TLR-4 in cells (TLR-4): increases expression
- expression of TLR-7 in cells (TLR-7): increases expression
- expression of TLR-2 in cells [2]: increases expression
